Earlier results on 1 substance are cited in US20140161813A1, “METHODS FOR THE DIAGNOSIS, TREATMENT AND MONITORING OF CANCER” (priority 2012, published 2014).

In series [1] the test system is spontaneous tumors in dogs (thyroid carcinoma, malignant peripheral nerve sheath tumor, anal gland adenocarcinoma, spinal meningioma).
Series [2] relates to human tumor 60 cell line screen. The following applies: colon, ovarian and breast carcinomas and central nervous system tumors.

Regarding nitrosylcobalamin [NO-Cbl], in series [1] (case study in dogs with spontaneous tumors), the “systemic or local toxicity” value was “no evidence of systemic or local toxicity”. Besides, the “dogs in which the tumor was completely eliminated” value in series [1] (extended follow-up, daily NO-Cbl treatment ranging in duration from 6 to 15 months) is listed as 3 of 4. Moreover, the “decrease in tumor size” value in series [1] (remaining 1 of 4 dogs, daily NO-Cbl treatment over the course of 6 months) is listed as 77%. For the same substance, the “antigrowth effects, tumor types most responsive” value in series [2] was “colon, ovarian and breast carcinomas as well as central nervous system tumors were most responsive”.
